Molecules are shown by their SMILES. Counter-ions that a name gives are not always drawn. A value given as a limit tells only on which side of the number the result lay.

From patent publication US20120142667A1, “PYRIMIDINE DERIVATIVES AS ZAP-70 INHIBITORS” (priority 2009, published 2012) come the findings set out here.

The subject of assay [1] is Calcium Ion Release in Cells. As to the kind of experiment: calcium release assay (measurement of calcium ion release in cells). To be noted: calcium release assay as described in WO-A 2009/080638. The assay is classed as cell-based.
The next assay deals with T1, ZAP-70 (Homo sapiens, UniProt P43403).
T1 construct: endogenous in cells; host or cells: cell lysate
T1 sequence (P43403 1-619): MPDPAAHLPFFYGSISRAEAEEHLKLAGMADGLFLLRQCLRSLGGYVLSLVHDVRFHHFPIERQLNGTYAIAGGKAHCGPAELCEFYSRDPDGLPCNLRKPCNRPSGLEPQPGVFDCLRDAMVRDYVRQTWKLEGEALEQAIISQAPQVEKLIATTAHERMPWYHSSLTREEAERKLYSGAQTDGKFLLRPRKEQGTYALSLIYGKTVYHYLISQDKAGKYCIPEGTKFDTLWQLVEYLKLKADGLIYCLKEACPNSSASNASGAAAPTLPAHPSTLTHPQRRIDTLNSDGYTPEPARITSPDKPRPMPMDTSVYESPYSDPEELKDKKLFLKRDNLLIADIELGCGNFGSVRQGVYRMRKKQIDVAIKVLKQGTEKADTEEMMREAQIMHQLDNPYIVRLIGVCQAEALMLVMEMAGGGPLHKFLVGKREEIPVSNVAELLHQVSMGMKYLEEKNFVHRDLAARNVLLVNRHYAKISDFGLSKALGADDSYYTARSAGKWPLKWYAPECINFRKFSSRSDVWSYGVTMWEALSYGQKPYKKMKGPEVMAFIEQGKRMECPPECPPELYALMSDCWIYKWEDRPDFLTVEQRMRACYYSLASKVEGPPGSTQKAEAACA
The assay can be described thus: ZAP-70 kinobeads assay. The assay is classed as binding. The settings on record: cell lysate. Summed up: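 Competition binding: compounds at various concentrations incubated with cell lysate plus affinity matrix bearing immobilized aminopyrido-pyrimidine ligand 24. ZAP-70 retained on beads eluted and quantified by specific-antibody dot blot with infrared detection.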

A word on the IC50: it is the midpoint of a concentration-inhibition curve. Take `COc1ccc(Nc2nc(Nc3cc(OC)c(CCO)cc3OC)ncc2Cl)c(NS(C)(=O)=O)c1` [Example 105, N-(2-((5-chloro-2-((4-(2-hydroxyethyl)-2,5-dimethoxyphenyl)amino)pyrimidin-4-yl)amino)-5-methoxyphenyl)methanesulfonamide]: the IC50 is at most 1000 nM in assay [1] and 100 to 1000 nM against ZAP-70.

For the compound `COc1ccc(Nc2nc(Nc3ccc(OCCCN4CCCCC4)cc3OC)ncc2Cl)c(NS(C)(=O)=O)c1` [Example 30, N-(2-(5-chloro-2-(2-methoxy-4-(3-(piperidin-1-yl)propoxy)phenylamino)pyrimidin-4-ylamino)-5-methoxyphenyl)methanesulfonamide], the figures for the IC50 (in assay [1]; against ZAP-70) were at most 1000 nM and at most 100 nM, respectively.

As to `COc1ccc(Nc2nc(Nc3cc(OCC(N)=O)ccc3OC)ncc2Cl)c(NS(C)(=O)=O)c1` [Example 108, 2-(3-((5-chloro-4-((4-methoxy-2-(methylsulfonamido)phenyl)amino)pyrimidin-2-yl)amino)-4-methoxyphenoxy)acetamide], the half-inhibitory concentration (IC50) in assay [1] is at most 1000 nM; against ZAP-70 it was at most 100 nM.

Turning to `COc1ccc(Nc2nc(Nc3ccc(OCC(N)=O)cc3OC)ncc2Cl)c(NS(C)(=O)=O)c1` [Example 89, 2-(4-((5-chloro-4-((4-methoxy-2-(methylsulfonamido)phenyl)amino)pyrimidin-2-yl)amino)-3-methoxyphenoxy)acetamide], the IC50 in assay [1] is at most 1000 nM; against ZAP-70 it was at most 100 nM.

For `COc1ccc(Nc2nc(Nc3cccc(OCCO)c3C)ncc2Cl)c(NS(C)(=O)=O)c1` [Example 65, N-(2-(5-chloro-2-(3-(2-hydroxyethoxy)-2-methylphenylamino)pyrimidin-4-ylamino)-5-methoxyphenyl)methanesulfonamide], the IC50 was at most 1000 nM in assay [1] and at most 100 nM on ZAP-70.

Turning to `COc1ccc(Nc2nc(Nc3ccncc3C)ncc2Cl)c(NS(C)(=O)=O)c1` [Example 70, N-(2-(5-chloro-2-(3-methylpyridin-4-ylamino)pyrimidin-4-ylamino)-5-methoxyphenyl)methanesulfonamide], the IC50 was at most 1000 nM in assay [1] and at most 100 nM against ZAP-70.

As to `COc1ccc(Nc2nc(Nc3cccc(OCCCO)c3C)ncc2Cl)c(NS(C)(=O)=O)c1` [Example 94, N-(2-((5-chloro-2-((3-(3-hydroxypropoxy)-2-methylphenyl)amino)pyrimidin-4-yl)amino)-5-methoxyphenyl)methanesulfonamide], the IC50 in assay [1] is at most 1000 nM; against ZAP-70, 100 to 1000 nM.

In the case of `COc1ccc(Nc2nc(Nc3cc(OCCO)ccc3OC)ncc2Cl)c(NS(C)(=O)=O)c1` [Example 68, N-(2-(5-chloro-2-(5-(2-hydroxyethoxy)-2-methoxyphenylamino)pyrimidin-4-ylamino)-5-methoxyphenyl)methanesulfonamide], the 50% inhibitory concentration (IC50) was at most 1000 nM in assay [1] and at most 100 nM at ZAP-70.

As to `COc1ccc(Nc2nc(Nc3cnc(OC)cc3C)ncc2Cl)c(NS(C)(=O)=O)c1` [Example 74, N-(2-(5-chloro-2-(6-methoxy-4-methylpyridin-3-ylamino)pyrimidin-4-ylamino)-5-methoxyphenyl)methanesulfonamide], the figures for the half-maximal inhibitory concentration (IC50) (in assay [1]; against ZAP-70) were at most 1000 nM and 100 to 1000 nM, respectively.

On to `COc1ccc(Nc2nc(Nc3cc(OC)c(OCCO)cc3OC)ncc2Cl)c(NS(C)(=O)=O)c1` [Example 110, N-(2-((5-chloro-2-((4-(2-hydroxyethoxy)-2,5-dimethoxyphenyl)amino)pyrimidin-4-yl)amino)-5-methoxyphenyl)methanesulfonamide], for which the IC50 in assay [1] is at most 1000 nM; against ZAP-70 it was at most 100 nM.

As to `COc1ccc(Nc2nc(Nc3ccc(OC)c(OC)c3OC)ncc2Cl)c(NS(C)(=O)=O)c1` [Example 32, N-(2-(5-chloro-2-(2,3,4-trimethoxyphenylamino)pyrimidin-4-ylamino)-5-methoxyphenyl)methanesulfonamide hydrochloride], the IC50 in assay [1] is at most 1000 nM; on ZAP-70, 100 to 1000 nM.

Consider `COc1ccc(Nc2nc(Nc3cnc(C)cc3C)ncc2Cl)c(NS(C)(=O)=O)c1` [Example 71, N-(2-(5-chloro-2-(4,6-dimethylpyridin-3-ylamino)pyrimidin-4-ylamino)-5-methoxyphenyl)methanesulfonamide], for which the results for the IC50 (in assay [1]; against ZAP-70) were at most 1000 nM and at most 100 nM, respectively.

For the compound `COc1ccc(Nc2nc(Nc3ccc(OCCN)cc3OC)ncc2Cl)c(NS(C)(=O)=O)c1` [Example 63, N-(2-(2-(4-(2-aminoethoxy)-2-methoxyphenylamino)-5-chloropyrimidin-4-ylamino)-5-methoxyphenyl)methanesulfonamide], the values for the concentration for half-maximal inhibition (IC50) (in assay [1]; against ZAP-70) were at most 1000 nM and 100 to 1000 nM, respectively.

`COc1ccc(Nc2nc(Nc3cccnc3OC)ncc2Cl)c(NS(C)(=O)=O)c1` [Example 79, N-(2-(5-chloro-2-(2-methoxypyridin-3-ylamino)pyrimidin-4-ylamino)-5-methoxyphenyl)methanesulfonamide]: the IC50 is at most 1000 nM in assay [1] and 100 to 1000 nM at ZAP-70.

Regarding `COc1ccc(Nc2nc(Nc3cc(OC)c(CC(N)=O)cc3OC)ncc2Cl)c(NS(C)(=O)=O)c1` [Example 107, 2-(4-((5-chloro-4-((4-methoxy-2-(methylsulfonamido)phenyl)amino)pyrimidin-2-yl)amino)-2,5-dimethoxyphenyl)acetamide], the IC50 in assay [1] was at most 1000 nM; on ZAP-70 it was 100 to 1000 nM.

Turning to `COc1ccc(Nc2nc(Nc3cc(OCCO)ccc3C)ncc2Cl)c(NS(C)(=O)=O)c1` [Example 88, N-(2-(5-chloro-2-(5-(2-hydroxyethoxy)-2-methylphenylamino)pyrimidin-4-ylamino)-5-methoxyphenyl)methanesulfonamide], the half-inhibitory concentration (IC50) in assay [1] is at most 1000 nM; against ZAP-70, at most 100 nM.

`COc1ccc(Nc2nc(Nc3cccc(CCCO)c3C)ncc2Cl)c(NS(C)(=O)=O)c1` [Example 97, N-(2-((5-chloro-2-((3-(3-hydroxypropyl)-2-methylphenyl)amino)pyrimidin-4-yl)amino)-5-methoxyphenyl)methanesulfonamide]: the IC50 in assay [1] was at most 1000 nM; against ZAP-70, at most 100 nM.

`COc1ccc(Nc2nc(Nc3cccc(OCC(=O)N4CCC4)c3C)ncc2Cl)c(NS(C)(=O)=O)c1` [Example 5, N-(2 (2 (3 (2 (azetidin-1-yl)-2-oxoethoxy)-2-methylphenylamino)-5-chloropyrimidin-4-ylamino)-5-methoxyphenyl)methanesulfonamide]: the IC50 in assay [1] was at most 1000 nM; against ZAP-70, at most 100 nM.

Regarding `COc1ccc(Nc2nc(Nc3cnc(OC)cc3OC)ncc2Cl)c(NS(C)(=O)=O)c1` [Example 3, N-(2-(5-chloro-2-(4,6-dimethoxypyridin-3-ylamino)pyrimidin-4-ylamino)-5-methoxyphenyl)methanesulfonamide], the concentration for half-maximal inhibition (IC50) in assay [1] was at most 1000 nM; at ZAP-70, at most 100 nM.
